The target of this test is PDE1B (Homo sapiens, UniProt Q01064). The test can be described thus: In vitro HTRF PDE1 inhibition assay (PDE1B). Format: biochemical.
[1] abbreviates: in vitro PDE1B HTRF Assay, read-out: IC50.

Consider 55 compounds from US20180044343A1, “BICYCLIC IMIDAZOLO DERIVATIVE” (Sumitomo Dainippon Pharma Co., Ltd., priority 2015, published 2018).

Where two headings read alike, the source gives them in different places. Bounds are passed on as bounds.

PDE1B, sequence (Q01064 whole entry): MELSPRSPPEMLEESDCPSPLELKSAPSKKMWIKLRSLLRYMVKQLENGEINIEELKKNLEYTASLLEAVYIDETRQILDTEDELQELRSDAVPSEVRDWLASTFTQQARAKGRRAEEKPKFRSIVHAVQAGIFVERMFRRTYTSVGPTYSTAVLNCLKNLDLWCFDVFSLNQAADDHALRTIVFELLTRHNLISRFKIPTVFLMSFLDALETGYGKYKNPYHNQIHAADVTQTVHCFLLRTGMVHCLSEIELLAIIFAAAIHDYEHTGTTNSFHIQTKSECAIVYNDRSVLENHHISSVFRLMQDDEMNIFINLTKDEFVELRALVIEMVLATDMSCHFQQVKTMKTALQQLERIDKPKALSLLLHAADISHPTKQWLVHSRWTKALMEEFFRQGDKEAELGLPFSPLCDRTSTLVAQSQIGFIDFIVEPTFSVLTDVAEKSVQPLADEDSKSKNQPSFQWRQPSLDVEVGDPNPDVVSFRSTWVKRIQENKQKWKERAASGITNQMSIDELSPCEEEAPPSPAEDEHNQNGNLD

In general, IC50 refers to the concentration that inhibits the measured activity by half. For the compound `CO[C@@H]1CCN(c2nn3c(C4CCOCC4)ncc3c(=O)n2C)C1` [Example 188], the 50% inhibitory concentration (IC50) under setting [1] was < 1 µM.

As to `Cn1c(N2CC[C@@H](Oc3ccc(F)cn3)C2)nn2c(C3CCOCC3)ncc2c1=O` [Example 189], the IC50 under setting [1] is < 1 µM.

Take `Cn1c(N2CC[C@H](Oc3ccc(F)cn3)C2)nn2c(C3CCOCC3)ncc2c1=O` [Example 190]: the IC50 under setting [1] was < 1 µM.

On to `COC1CCN(c2nn3c(C4CCOCC4)ncc3c(=O)n2C)CC1` [Example 191], for which the IC50 under setting [1] is < 1 µM.

Consider `COCC1CCN(c2nn3c(C4CCOCC4)ncc3c(=O)n2C)CC1` [Example 192], for which, under setting [1], the IC50 is < 1 µM.

For the compound `COCCC1CCN(c2nn3c(C4CCOCC4)ncc3c(=O)n2C)CC1` [Example 193], under setting [1], the IC50 was < 1 µM.

As for `CN(C)C(=O)C1CCN(c2nn3c(C4CCOCC4)ncc3c(=O)n2C)CC1` [Example 194], the IC50 under setting [1] lay in the range of 1 to 10 µM.

As for `CC(=O)N1CCN(c2nn3c(C4CCOCC4)ncc3c(=O)n2C)CC1` [Example 195], the IC50 under setting [1] was < 1 µM.

For `COCCCN1CCN(c2nn3c(C4CCOCC4)ncc3c(=O)n2C)CC1` [Example 196], the IC50 under setting [1] was < 1 µM.

Consider `CN(C)C(=O)CN1CCCN(c2nn3c(C4CCOCC4)ncc3c(=O)n2C)CC1` [Example 197], for which the IC50 under setting [1] was < 1 µM.

On to `CCn1c(N2CCCC2)nn2c(C3CCOCC3)ncc2c1=O` [Example 198], for which the IC50 under setting [1] was < 1 µM.

Consider `CCCn1c(N2CCCC2)nn2c(C3CCOCC3)ncc2c1=O` [Example 199], for which, under setting [1], the IC50 is < 1 µM.

As for `O=c1c2cnc(C3CCOCC3)n2nc(N2CCCC2)n1Cc1ccccc1` [Example 202], the IC50 under setting [1] is < 1 µM.

On to `O=c1c2cnc(C3CCOCC3)n2nc(N2CCCC2)n1Cc1ccc(Cl)cc1` [Example 203], for which the IC50 under setting [1] is < 1 µM.

`Cc1ccc(CNc2nn3c(C4CCC4)ncc3c(=O)n2C)nc1` [Example 204]: the IC50 under setting [1] was < 1 µM.

For the compound `Cn1c(NCc2ccc(Cl)cn2)nn2c(C3CCC3)ncc2c1=O` [Example 205], under setting [1], the IC50 was < 1 µM.

With `O=c1c2cnc(C3CCOCC3)n2nc(N2CCCC2)n1CC1CC1` [Example 206, 3-(Cyclopropylmethyl)-2-(pyrrolidin-1-yl)-7-(tetrahydro-2H-pyran-4-yl)imidazo[5,1-f][1,2,4]triazin-4(3H)-one], the IC50 under setting [1] is 1 to 10 µM.

With `CC(C)n1c(N2CCCC2)nn2c(C3CCOCC3)ncc2c1=O` [Example 207], under setting [1], the IC50 fell in the range of 10 to 100 µM.

As for `CC(C)Cn1c(N2CCCC2)nn2c(C3CCOCC3)ncc2c1=O` [Example 208], the IC50 under setting [1] is 1 to 10 µM.

As for `O=c1c2cnc(C3CCOCC3)n2nc(N2CCCC2)n1CCC(F)(F)F` [Example 209], under setting [1], the IC50 lay in the range of 10 to 100 µM.

Regarding `COCCn1c(N2CCCC2)nn2c(C3CCOCC3)ncc2c1=O` [Example 210], under setting [1], the IC50 lay within 10 to 100 µM.

As for `O=c1c2cnc(C3CCOCC3)n2nc(N2CCCC2)n1CC1CCC1` [Example 211], the IC50 under setting [1] fell in the range of 10 to 100 µM.

For the compound `O=c1c2cnc(C3CCOCC3)n2nc(N2CCCC2)n1CC1CCCC1` [Example 212], the IC50 under setting [1] lay within 10 to 100 µM.

Consider `O=c1c2cnc(C3CCOCC3)n2nc(N2CCCC2)n1CC1CCCCC1` [Example 213], for which the IC50 under setting [1] lay within 1 to 10 µM.

Take `O=c1c2cnc(C3CCOCC3)n2nc(N2CCCC2)n1CC1CCOCC1` [Example 214]: the IC50 under setting [1] lay in the range of 10 to 100 µM.

Consider `O=c1c2cnc(C3CCOCC3)n2nc(N2CCCC2)n1CCC1CCOCC1` [Example 215], for which the IC50 under setting [1] lay in the range of 10 to 100 µM.

For the compound `Cc1ccc([C@H]2CCCN2c2nn3c(C(C)C)ncc3c(=O)n2C)cn1` [Example 216, 3-Methyl-2-[(2R)-2-(6-methylpyridin-3-yl)pyrrolidin-1-yl]-7-(propan-2-yl)imidazo[5,1-f][1,2,4]triazin-4(3H)-one], the IC50 is < 1 µM.

Consider `Cc1ccc([C@@H]2CCCN2c2nn3c(C(C)C)ncc3c(=O)n2C)cn1` [Example 217, 3-Methyl-2-[(2S)-2-(6-methylpyridin-3-yl)pyrrolidin-1-yl]-7-(propan-2-yl)imidazo[5,1-f][1,2,4]triazin-4(3H)-one], for which, under setting [1], the IC50 lay within 1 to 10 µM.

Consider `Cc1ccc([C@H]2CCCN2c2nn3c(C(C)C)ncc3c(=O)n2C)nc1` [Example 218, 3-Methyl-2-[(2R)-2-(5-methylpyridin-2-yl)pyrrolidin-1-yl]-7-(propan-2-yl)imidazo[5,1-f][1,2,4]triazin-4(3H)-one], for which the IC50 under setting [1] is < 1 µM.

`Cc1ccc([C@@H]2CCCN2c2nn3c(C(C)C)ncc3c(=O)n2C)nc1` [Example 219, 3-Methyl-2-[(2S)-2-(5-methylpyridin-2-yl)pyrrolidin-1-yl]-7-(propan-2-yl)imidazo[5,1-f][1,2,4]triazin-4(3H)-one]: the IC50 under setting [1] was < 1 µM.

Regarding `COCCN1CCCN(c2nn3c(C4CCOCC4)ncc3c(=O)n2C)CC1` [Example 220, 2-[4-(2-Methoxyethyl)-1,4-diazepan-1-yl]-3-methyl-7-(tetrahydro-2H-pyran-4-yl)imidazo[5,1-f][1,2,4]triazin-4(3H)-one], the IC50 under setting [1] was in the range of 10 to 100 µM.

`COCC(=O)N1CCCN(c2nn3c(C4CCOCC4)ncc3c(=O)n2C)CC1` [Example 221, 2-[4-(Methoxyacetyl)-1,4-diazepan-1-yl]-3-methyl-7-(tetrahydro-2H-pyran-4-yl)imidazo[5,1-f][1,2,4]triazin-4(3H)-one]: under setting [1], the IC50 was in the range of 1 to 10 µM.

Regarding `CN(C)CC(=O)N1CCCN(c2nn3c(C4CCOCC4)ncc3c(=O)n2C)CC1` [Example 222, 2-{4-[(Dimethylamino)acetyl]-1,4-diazepan-1-yl}-3-methyl-7-(tetrahydro-2H-pyran-4-yl)imidazo[5,1-f][1,2,4]triazin-4(3H)-one], the IC50 under setting [1] lay in the range of 10 to 100 µM.

As for `CC(C)c1ncc2c(=O)n(C)c(COc3ccc(Cl)cc3)nn12` [Example 223, 2-[(4-Chlorophenoxy)methyl]-3-methyl-7-(propan-2-yl)imidazo[5,1-f][1,2,4]triazin-4(3H)-one], the IC50 under setting [1] is 1 to 10 µM.

Take `Cc1ccc(OCc2nn3c(C(C)C)ncc3c(=O)n2C)cc1` [Example 225]: the IC50 under setting [1] fell in the range of 1 to 10 µM.

Take `CC(C)c1ncc2c(=O)n(C)c(COc3ccc(F)cc3)nn12` [Example 226]: under setting [1], the IC50 is < 1 µM.

In the case of `Cc1ccc(OCc2nn3c(C4CCCC4)ncc3c(=O)n2C)cc1` [Example 227], under setting [1], the IC50 is 1 to 10 µM.

As for `Cn1c(COc2ccc(F)cc2)nn2c(C3CCCC3)ncc2c1=O` [Example 228], under setting [1], the IC50 was in the range of 1 to 10 µM.

For `CC(C)c1ncc2c(=O)n(C)c(CN3CCCc4cc(Cl)ccc43)nn12` [Example 229, 2-[(6-Chloro-3,4-dihydroquinolin-1(2H)-yl)methyl]-3-methyl-7-(propan-2-yl)imidazo[5,1-f][1,2,4]triazin-4(3H)-one], the IC50 under setting [1] was < 1 µM.

Regarding `CC(C)c1ncc2c(=O)n(C)c(CN(C)c3ccc(C(F)(F)F)cc3)nn12` [Example 230, 3-Methyl-2-({methyl[4-(trifluoromethyl)phenyl]amino}methyl)-7-(propan-2-yl)imidazo[5,1-f][1,2,4]triazin-4(3H)-one], the IC50 under setting [1] was < 1 µM.

For the compound `Cn1c(CN2Cc3ccccc3C2=O)nn2c(C3CCCC3)ncc2c1=O` [Example 231, 7-Cyclopentyl-3-methyl-2-[(1-oxo-1,3-dihydro-2H-isoindol-2-yl)methyl]imidazo[5,1-f][1,2,4]triazin-4(3H)-one], the IC50 under setting [1] is < 1 µM.

Regarding `CC(C)c1ncc2c(=O)n(C)c(CN3Cc4ccccc4C3=O)nn12` [Example 232], under setting [1], the IC50 was 1 to 10 µM.

`Cn1c(CN2CCCc3cc(Cl)ccc32)nn2c(C3CCCC3)ncc2c1=O` [Example 233]: the IC50 under setting [1] was < 1 µM.

On to `Cn1c(CN2C(=O)c3ccccc3C2=O)nn2c(C3CCCC3)ncc2c1=O` [Example 234], for which, under setting [1], the IC50 was < 1 µM.

As for `CN(Cc1nn2c(C3CCCC3)ncc2c(=O)n1C)c1ccc(C(F)(F)F)cc1` [Example 235], the IC50 under setting [1] is < 1 µM.

For `Cc1ccc(-c2nn3c(C4CCOCC4)ncc3c(=O)n2C)cc1` [Example 236, 3-Methyl-2-(4-methylphenyl)-7-(tetrahydro-2H-pyran-4-yl)imidazo[5,1-f][1,2,4]triazin-4(3H)-one], under setting [1], the IC50 was < 1 µM.

With `Cc1nn2c(C3CCOCC3)ncc2c(=O)n1CC1CCC(F)(F)CC1` [Example 237, 3-[(4,4-Difluorocyclohexyl)methyl]-2-methyl-7-(tetrahydro-2H-pyran-4-yl)imidazo[5,1-f][1,2,4]triazin-4(3H)-one], under setting [1], the IC50 is < 1 µM.

Regarding `Cn1c(/C=C/c2ccc(F)cc2)nn2c(C3CCOCC3)ncc2c1=O` [Example 240, 2-[(E)-2-(4-Fluorophenyl)ethenyl]-3-methyl-7-(tetrahydro-2H-pyran-4-yl)imidazo[5,1-f][1,2,4]triazin-4(3H)-one], under setting [1], the IC50 was < 1 µM.

Take `Cn1c(CCc2ccc(F)cc2)nn2c(C3CCOCC3)ncc2c1=O` [Example 241, 2-[2-(4-Fluorophenyl)ethyl]-3-methyl-7-(tetrahydro-2H-pyran-4-yl)imidazo[5,1-f][1,2,4]triazin-4(3H)-one]: under setting [1], the IC50 is < 1 µM.

In the case of `COc1ccc(CCc2nn3c(C4CCOCC4)ncc3c(=O)n2C)cc1` [Example 243, 2-[2-(4-Methoxyphenyl)ethyl]-3-methyl-7-(tetrahydro-2H-pyran-4-yl)imidazo[5,1-f][1,2,4]triazin-4(3H)-one], the IC50 under setting [1] was < 1 µM.

As for `Cn1c(CCc2ccccn2)nn2c(C3CCOCC3)ncc2c1=O` [Example 244, 3-Methyl-2-[2-(pyridin-2-yl)ethyl]-7-(tetrahydro-2H-pyran-4-yl)imidazo[5,1-f][1,2,4]triazin-4(3H)-one], under setting [1], the IC50 was < 1 µM.

On to `Cn1c(OC[C@H]2CC[C@@H](C(F)(F)F)CC2)nn2c(C3CCOCC3)ncc2c1=O` [Example 248, 3-methyl-7-(tetrahydro-2H-pyran-4-yl)-2-{[cis-4-(trifluoromethyl)cyclohexyl]methoxy}-imidazo[5,1-f][1,2,4]triazin-4(3H)-one], for which, under setting [1], the IC50 is < 1 µM.

For the compound `CCO[C@H]1CC[C@@H](COc2nn3c(C4CCOCC4)ncc3c(=O)n2CC)CC1` [Example 250], the IC50 under setting [1] is < 1 µM.

On to `CCn1c(OC[C@H]2CC[C@@H](C(F)(F)F)CC2)nn2c(C3CCOCC3)ncc2c1=O` [Example 252], for which the IC50 under setting [1] is < 1 µM.

On to `Cn1c(O[C@H]2CC[C@H](C)CC2)nn2c(C3CCOCC3)ncc2c1=O` [Example 254, 3-Methyl-2-[(trans-4-methylcyclohexyl)oxy]-7-(tetrahydro-2H-pyran-4-yl)imidazo[5,1-f][1,2,4]triazin-4(3H)-one], for which, under setting [1], the IC50 was < 1 µM.
